Consider six molecules from article PMC5507339, “Small-molecule inhibition of pyruvate phosphate dikinase targeting the nucleotide binding site” (PLoS ONE, 2017).

Entries after “also recorded” stand apart in the source; their conditions may differ.

Assay [1] concerns the target T1, PPDK from Flaveria trinervia (Flaveria trinervia, UniProt P22221).
T1 construct: His10 (N); TEV cleavage site (N); made in house; host or cells: E. coli BL21 (DE3)
T1 sequence (P22221 80-953): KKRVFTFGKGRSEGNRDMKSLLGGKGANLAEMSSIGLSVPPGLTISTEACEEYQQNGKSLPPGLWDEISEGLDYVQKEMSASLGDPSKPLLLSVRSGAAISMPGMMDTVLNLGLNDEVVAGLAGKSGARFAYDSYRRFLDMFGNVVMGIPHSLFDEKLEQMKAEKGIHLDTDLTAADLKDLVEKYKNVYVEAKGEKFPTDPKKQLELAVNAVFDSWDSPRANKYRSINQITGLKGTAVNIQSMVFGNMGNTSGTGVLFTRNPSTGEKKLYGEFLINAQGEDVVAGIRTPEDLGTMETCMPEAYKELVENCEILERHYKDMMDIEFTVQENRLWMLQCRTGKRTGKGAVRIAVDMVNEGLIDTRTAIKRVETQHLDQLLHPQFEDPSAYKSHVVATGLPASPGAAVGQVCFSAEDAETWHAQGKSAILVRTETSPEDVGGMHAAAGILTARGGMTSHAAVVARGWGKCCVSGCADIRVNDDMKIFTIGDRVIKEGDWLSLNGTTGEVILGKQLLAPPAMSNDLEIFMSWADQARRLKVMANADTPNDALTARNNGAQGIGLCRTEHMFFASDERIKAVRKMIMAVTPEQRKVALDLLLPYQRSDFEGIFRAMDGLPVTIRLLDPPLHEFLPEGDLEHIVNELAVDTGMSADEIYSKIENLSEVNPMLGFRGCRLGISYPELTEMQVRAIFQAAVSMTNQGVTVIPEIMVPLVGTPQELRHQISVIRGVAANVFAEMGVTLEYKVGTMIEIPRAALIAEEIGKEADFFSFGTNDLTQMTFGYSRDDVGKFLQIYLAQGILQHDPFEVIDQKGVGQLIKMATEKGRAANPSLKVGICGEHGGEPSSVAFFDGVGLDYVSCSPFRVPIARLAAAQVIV
The assay can be described thus: biochemical. To be noted: for IC50: 0.2 μM PPDK, inhibitor 0-200 μM, mean ± standard error; for Residual PPDK activity relative to DMSO-treated controls: inhibitor 100 μM. As to the method:
Heterologous gene expression and purification of the recombinant PPDK were performed as described in [11]. A modified pET-16b vector (Merck, Darmstadt, GER) which contained an N-terminal histidine10 tag, followed by a TEV cleavage site and the sequence encoding for PPDK from Flaveria trinervia (EMBL X75516) was used for heterologous expression in E. coli strain BL21 (DE3). Transformed cells were grown to an OD600 of 0.6–0.8 in 2YT medium at 30°C before expression was induced by the addition of 0.1 mM isopropyl-β-D-1-thiogalactopyranoside. Cells were harvested after over night incubation at 30°C and 180 rpm. Preceding purification, cells were resuspended in lysis buffer (50 mM Tris/HCl pH 7.5, 300 mM NaCl, 10 mM imidazole, 10 mM MgSO4, 10% (w/v) glycerol, 5 mM DTT, 0.002% (w/v) phenylmethanesulfonylfluoride) and disrupted using a cell disruptor (Constant Systems). PPDK was purified using a nickel affinity chromatography column (GE Healthcare, Munich, GER). Purification (50 mM Tris/HCl pH 7.5, 300 mM NaCl, 10 mM MgSO4, 10% (w/v) glycerol, 5 mM DTT) and elution buffer (50 mM Tris/HCl pH 7.5, 300 mM NaCl, 500 mM imidazole, 10 mM MgSO4, 10% (w/v) glycerol, 5 mM DTT) were used for further purification steps. PPDK bound to the column was washed in steps of 50 mM, 150 mM and 200 mM imidazole, before final elution with 500 mM imidazole. Protein-rich fractions were pooled and a PD-10 desalting column (GE Healthcare) was used to change the elution buffer for assay buffer (100 mM Tris/HCl pH 8.0, 10 mM MgCl2, 2.5 mM KH2PO4, 6 mM glucose-6-phosphate, 5 mM NaHCO3, 0.1 mM EDTA, 5 mM DTT). The buffer-exchanged sample was eventually concentrated by ultrafiltration (30 kDa cutoff, Millipore).
Activity of purified PPDK was measured according to Salahas et al., Doyle et al. in a 96 well microtiter plate layout by a coupled spectrophotometrical assay. In this assay, the carboxylation of PEP by PEPC is linked to the oxidation of NADH by NADH-malate dehydrogenase (NADH-MDH). PEP is formed by PPDK via ATP-driven phosphorylation of pyruvate. Eventually, the consumption of one molecule NADH is equivalent to the formation of one molecule of PEP by PPDK. The assay was performed in a sample volume of 100 μL at 30°C in a M200 plate reader (Tecan, Crailsheim, GER). 0.2 μM PPDK were mixed with 0.2 mM NADH, 2.5 mM sodium pyruvate, 0.8 U bacterial PEPC (Sigma-Aldrich, Darmstadt, GER) and 2 U NADH-MDH (Sigma-Aldrich). The reaction mixture was filled up to a total volume of 100 μL per sample with assay buffer (100 mM Tris/HCl pH 8.0, 10 mM MgCl2, 2.5 mM KH2PO4, 6 mM glucose-6-phosphate, 5 mM NaHCO3, 0.1 mM EDTA, 5 mM DTT). PPDK was pre-incubated for 20 min at 30°C to ensure full activity. Inhibitors were dissolved in water free dimethyl sulfoxide (DMSO) with a final concentration of 10 mM and were added prior to adjusting the final sample volume. To account for possible effects of DMSO on PPDK activity, the solvent was added to the controls in an amount equal to the largest DMSO concentration used in the experiments. Incubation time of the final sample mixture including inhibitors and PPDK was 15 min. Initial comparative screening was perfomed using 100 μM of each compound. The absorbance at 340 nm was recorded for 30 s with an interval of 300 ms. […] A four-parameter log-logistic dose-response curve was then globally fitted to the individual replicates using the R software collection and the R package “drc” [28] as proposed by assessment of Akaike’s information criterion (AIC). PPDK was incubated for 10 min with the inhibitors before each measurement. To exclude PEPC or NADH-MDH inhibition by the selected compounds, the initial screening assay was repeated in triplicates for those compounds without adding PPDK and starting the reaction by injection of PEP instead of ATP.

The next assay deals with Zea mays PPDK. Also noted: method as in earlier work. The conditions noted are these: PPDK from leaf extracts; ref 21 (Haines et al.); cited from earlier work.
Another assay has as its system Zea mays leaf slices. Put plainly: Inhibition of oxygen evolution during C4 photosynthesis, leaf slices, Clark-type O2 electrode. The class given is cell-based. To be noted: for inhibition at 20 µg/mL: 20 μg mL^−1; for inhibition at 40 µg/mL: 40 μg mL^−1. As for the experimental part: Oxygen (O2) evolution, driven by the C4 acid cycle, was measured according to refs [21, 22, 31]. The reaction chamber of a Clark-type O2 electrode (Hansatech, Norfolk, UK) was filled with 1 mL of degassed buffer containing 0.33 M sorbitol, 2.5 mM NaH2PO4, 2.5 mM MgCl2, 25 mM HEPES/KOH pH 7.5, 50 μM MnCl2 and 2.5 mM dithiothreitol (DTT). An area sized approx. 1 cm^2 was cut from a mature leaf of the C4 model plant Zea mays and processed into slices of ∼ 1 mm width. The leaf slices were added to the electrode chamber and the recording of O2 evolution was started while keeping the chamber in the dark. The O2 evolution rate recorded in this period was later substracted from the subsequently recorded rates to account for the electrode drift. Once the system had stabilized, the chamber was illuminated using a Schott KL 1500 electronic light source. Again, the system was given time to stabilize before the C4-driven O2 evolution was initiated by the addition of first NaHCO3 and then pyruvate in final concentrations of 4 mM each. […] All measurements were done in triplicates.
Directly following the measurement, leaf slices were removed from the chamber and transferred to 1 mL of 80% acetone (v/v) for chlorophyll extraction. The samples were kept at 4°C in the dark for 48 h.

Assay [2] concerns the target receptor tyrosine kinases. Also noted: method as in PMID 16648571. To be noted: ATP-competitive; cited from earlier work.

For `C=C1CCC[C@H]2[C@](C)(CC3=C(O)C(=O)C=C(OC)C3=O)[C@@H](C)CC[C@]12C` [ilimaquinone], the IC50 – broadly, the midpoint of a concentration-inhibition curve – in assay [1] is 740 ± 566 µM; in the assay on Zea mays PPDK, 292 ± 23 µM.
As for `CN1C(=O)C(c2c[nH]c3ccccc23)=C(c2c[nH]c3ccccc23)C1=O` [bisindolylmaleimide V], the “Residual PPDK activity relative to DMSO-treated controls” value in assay [1] came to 15%.
In assay [1], `COc1ccc2c(c1)c(C1=C(c3c[nH]c4ccccc34)C(=O)NC1=O)cn2CCCN(C)C` [Go6983] showed an IC50 of 1.5 ± 0.6 µM. Moreover, in the assay with Zea mays leaf slices, the inhibition (as a rule, how much of the control response was suppressed) at 20 µg/mL was found to be 19% and the inhibition at 40 µg/mL was determined as 29%.
As for `Cc1ccc(F)c(NC(=O)Nc2ccc(-c3cccc4[nH]nc(N)c34)cc2)c1` [ABT-869], the half-maximal inhibitory concentration (IC50) in assay [1] was 11.2 ± 0.24 µM; in assay [2] it was 0.004 µM. Further, in assay [1], the “Residual PPDK activity relative to DMSO-treated controls” value is on record as “below 30%”.
Turning to `CN(C)CC1CCn2c(c(C3=C(c4cn(C)c5ccccc45)C(=O)NC3=O)c3ccccc32)C1` (stereo not shown) [BIM XI, bisindolylmaleimide XI], the “Effect on PPDK activity” value in assay [1] (initial screening) is “did not show any effect; also recorded: no effect”.
Regarding `O=C1NC(=O)C(c2c[nH]c3ccccc23)=C1c1c[nH]c2ccccc12` [BIM IV, bisindolylmaleimide IV], it took 0.76 ± 0.13 µM to reach half-maximal inhibition in assay [1] (IC50). In the assay on Zea mays leaf slices, this molecule came in with an inhibition at 20 µg/mL of 20% and an inhibition at 40 µg/mL of 36%.
